Legend:
Conditions in all cases: Compound concentration 1.0 uM
[1] = molecular target: Vasoactive intestinal polypeptide receptor 1 (Homo sapiens) (UniProt P32241); assay: RLU of VIPR1 at 1.0 µM in the […] PRESTO-Tango GPCRome screen
[2] = molecular target: Succinate receptor 1 (Homo sapiens) (UniProt Q9BXA5); assay: RLU of SUCNR1 at 1.0 µM in the […] PRESTO-Tango GPCRome screen
[3] = molecular target: Atypical chemokine receptor 3 (Homo sapiens) (UniProt P25106); assay: RLU of CXCR7 at 1.0 µM in the […] PRESTO-Tango GPCRome screen
[4] = molecular target: Proteinase-activated receptor 3 (Homo sapiens) (UniProt O00254); assay: RLU of F2RL2 at 1.0 µM in the […] PRESTO-Tango GPCRome screen
[5] = molecular target: C-C chemokine receptor type 5 (Homo sapiens) (UniProt P51681); assay: RLU of CCR5 at 1.0 µM in the […] PRESTO-Tango GPCRome screen
[6] = molecular target: C-X-C chemokine receptor type 5 (Homo sapiens) (UniProt P32302); assay: RLU of CXCR5 at 1.0 µM in the […] PRESTO-Tango GPCRome screen
[7] = molecular target: G-protein coupled receptor 171 (Homo sapiens) (UniProt O14626); assay: RLU of GPR171 at 1.0 µM in the […] PRESTO-Tango GPCRome screen
[8] = molecular target: G-protein coupled receptor 157 (Homo sapiens) (UniProt Q5UAW9); assay: RLU of GPR157 at 1.0 µM in the […] PRESTO-Tango GPCRome screen
Chain of G-protein coupled receptor 157 (Homo sapiens) (Q5UAW9 whole entry): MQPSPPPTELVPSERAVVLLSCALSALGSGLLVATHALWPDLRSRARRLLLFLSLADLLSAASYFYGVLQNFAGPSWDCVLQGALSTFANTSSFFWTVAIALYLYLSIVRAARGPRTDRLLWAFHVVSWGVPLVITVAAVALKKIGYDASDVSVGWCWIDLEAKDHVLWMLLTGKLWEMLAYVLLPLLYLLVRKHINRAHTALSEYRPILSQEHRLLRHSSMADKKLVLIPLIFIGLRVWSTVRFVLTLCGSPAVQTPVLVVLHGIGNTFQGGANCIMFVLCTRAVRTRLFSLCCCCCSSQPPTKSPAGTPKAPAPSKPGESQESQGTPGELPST

[9] = molecular target: Adhesion G-protein coupled receptor F3 (Homo sapiens) (UniProt Q8IZF5); assay: RLU of GPR113 at 1.0 µM in the […] PRESTO-Tango GPCRome screen
[10] = molecular target: G-protein coupled receptor 68 (Homo sapiens) (UniProt Q15743); assay: RLU of GPR68 at 1.0 µM in the […] PRESTO-Tango GPCRome screen
[11] = molecular target: Trace amine-associated receptor 8 (Homo sapiens) (UniProt Q969N4); assay: RLU of TAAR8 at 1.0 µM in the […] PRESTO-Tango GPCRome screen
Chain of Trace amine-associated receptor 8 (Homo sapiens) (Q969N4 whole entry): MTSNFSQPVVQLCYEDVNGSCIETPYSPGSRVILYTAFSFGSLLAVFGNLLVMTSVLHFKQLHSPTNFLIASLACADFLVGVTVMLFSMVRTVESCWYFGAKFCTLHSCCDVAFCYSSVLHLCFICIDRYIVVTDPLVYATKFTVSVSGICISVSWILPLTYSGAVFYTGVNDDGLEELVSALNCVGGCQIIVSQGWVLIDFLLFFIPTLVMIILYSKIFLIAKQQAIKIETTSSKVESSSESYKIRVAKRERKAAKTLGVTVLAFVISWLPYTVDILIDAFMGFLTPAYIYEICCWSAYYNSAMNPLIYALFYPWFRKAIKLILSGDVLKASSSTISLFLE

[12] = molecular target: Gastrin/cholecystokinin type B receptor (Homo sapiens) (UniProt P32239); assay: RLU of CCKBR at 1.0 µM in the […] PRESTO-Tango GPCRome screen
Chain of Gastrin/cholecystokinin type B receptor (Homo sapiens) (P32239 whole entry): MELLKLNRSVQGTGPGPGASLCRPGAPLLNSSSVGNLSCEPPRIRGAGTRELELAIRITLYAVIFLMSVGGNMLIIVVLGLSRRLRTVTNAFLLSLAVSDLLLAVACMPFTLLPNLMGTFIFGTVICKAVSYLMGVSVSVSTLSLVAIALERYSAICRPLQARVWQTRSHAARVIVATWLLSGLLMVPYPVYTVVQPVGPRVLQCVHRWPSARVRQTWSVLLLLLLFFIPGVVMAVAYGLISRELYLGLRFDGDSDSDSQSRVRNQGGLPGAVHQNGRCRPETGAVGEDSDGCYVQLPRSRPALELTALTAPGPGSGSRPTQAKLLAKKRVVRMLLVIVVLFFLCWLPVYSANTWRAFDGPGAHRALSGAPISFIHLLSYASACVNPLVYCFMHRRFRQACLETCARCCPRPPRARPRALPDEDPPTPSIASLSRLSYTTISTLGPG

[13] = molecular target: Prolactin-releasing peptide receptor (Homo sapiens) (UniProt P49683); assay: RLU of PRRP at 1.0 µM in the […] PRESTO-Tango GPCRome screen
[14] = molecular target: Probable G-protein coupled receptor 21 (Homo sapiens) (UniProt Q99679); assay: RLU of GPR21 at 1.0 µM in the […] PRESTO-Tango GPCRome screen
[15] = molecular target: Probable G-protein coupled receptor 25 (Homo sapiens) (UniProt O00155); assay: RLU of GPR25 at 1.0 µM in the […] PRESTO-Tango GPCRome screen
Chain of Probable G-protein coupled receptor 25 (Homo sapiens) (O00155 whole entry): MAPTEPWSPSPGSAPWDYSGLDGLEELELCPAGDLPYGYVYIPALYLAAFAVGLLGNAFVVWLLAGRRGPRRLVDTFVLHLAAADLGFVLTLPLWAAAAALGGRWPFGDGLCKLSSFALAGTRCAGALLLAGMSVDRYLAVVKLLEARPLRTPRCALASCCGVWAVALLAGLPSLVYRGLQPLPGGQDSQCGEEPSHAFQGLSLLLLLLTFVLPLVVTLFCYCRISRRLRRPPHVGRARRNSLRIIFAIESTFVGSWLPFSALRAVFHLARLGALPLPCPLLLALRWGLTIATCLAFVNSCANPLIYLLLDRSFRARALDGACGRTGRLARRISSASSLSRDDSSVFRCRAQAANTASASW

[16] = molecular target: P2Y purinoceptor 4 (Homo sapiens) (UniProt P51582); assay: RLU of P2RY4 at 1.0 µM in the […] PRESTO-Tango GPCRome screen
Chain of P2Y purinoceptor 4 (Homo sapiens) (P51582 whole entry): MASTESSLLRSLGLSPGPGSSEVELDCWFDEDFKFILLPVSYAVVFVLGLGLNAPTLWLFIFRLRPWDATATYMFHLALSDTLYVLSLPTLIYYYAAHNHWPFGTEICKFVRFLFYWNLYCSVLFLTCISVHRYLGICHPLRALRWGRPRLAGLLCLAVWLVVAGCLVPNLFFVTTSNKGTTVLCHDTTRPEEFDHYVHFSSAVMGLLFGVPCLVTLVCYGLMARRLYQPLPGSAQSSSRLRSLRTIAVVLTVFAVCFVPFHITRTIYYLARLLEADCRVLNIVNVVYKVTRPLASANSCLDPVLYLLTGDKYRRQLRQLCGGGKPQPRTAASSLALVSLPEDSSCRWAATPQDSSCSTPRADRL

[17] = molecular target: G-protein coupled receptor family C group 5 member B (Homo sapiens) (UniProt Q9NZH0); assay: RLU of GPRC5B at 1.0 µM in the […] PRESTO-Tango GPCRome screen
Chain of G-protein coupled receptor family C group 5 member B (Homo sapiens) (Q9NZH0 whole entry): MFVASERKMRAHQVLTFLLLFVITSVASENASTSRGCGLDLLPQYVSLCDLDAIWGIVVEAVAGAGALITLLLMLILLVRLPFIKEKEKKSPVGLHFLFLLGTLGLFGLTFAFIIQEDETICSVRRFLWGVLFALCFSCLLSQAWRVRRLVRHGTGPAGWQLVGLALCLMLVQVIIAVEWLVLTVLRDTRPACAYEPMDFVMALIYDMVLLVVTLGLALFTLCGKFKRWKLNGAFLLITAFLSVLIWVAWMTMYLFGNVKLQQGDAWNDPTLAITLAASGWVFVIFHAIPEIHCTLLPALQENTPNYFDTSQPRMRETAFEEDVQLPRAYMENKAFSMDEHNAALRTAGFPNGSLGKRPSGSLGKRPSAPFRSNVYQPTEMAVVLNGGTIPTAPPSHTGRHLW

[18] = molecular target: Motilin receptor (Homo sapiens) (UniProt O43193); assay: RLU of MLNR at 1.0 µM in the […] PRESTO-Tango GPCRome screen
[19] = molecular target: Proteinase-activated receptor 1 (Homo sapiens) (UniProt P25116); assay: RLU of F2R at 1.0 µM in the […] PRESTO-Tango GPCRome screen
Chain of Proteinase-activated receptor 1 (Homo sapiens) (P25116 whole entry): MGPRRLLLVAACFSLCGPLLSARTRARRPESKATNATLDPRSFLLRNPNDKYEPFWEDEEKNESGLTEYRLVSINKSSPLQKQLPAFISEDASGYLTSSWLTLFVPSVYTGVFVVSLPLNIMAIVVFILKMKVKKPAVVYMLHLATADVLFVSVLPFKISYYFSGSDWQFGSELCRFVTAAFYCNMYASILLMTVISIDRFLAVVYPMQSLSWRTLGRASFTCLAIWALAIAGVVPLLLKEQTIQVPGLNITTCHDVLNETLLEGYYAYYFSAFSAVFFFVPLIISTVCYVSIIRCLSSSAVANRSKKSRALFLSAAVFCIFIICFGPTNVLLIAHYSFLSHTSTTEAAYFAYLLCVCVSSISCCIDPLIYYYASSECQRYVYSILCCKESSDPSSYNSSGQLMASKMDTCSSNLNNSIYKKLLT

[20] = molecular target: Growth hormone secretagogue receptor type 1 (Homo sapiens) (UniProt Q92847); assay: RLU of GHSR at 1.0 µM in the […] PRESTO-Tango GPCRome screen
[21] = molecular target: Corticotropin-releasing factor receptor 1 (Homo sapiens) (UniProt P34998); assay: RLU of CRHR1 at 1.0 µM in the […] PRESTO-Tango GPCRome screen
[22] = molecular target: Somatostatin receptor type 3 (Homo sapiens) (UniProt P32745); assay: RLU of SSTR3 at 1.0 µM in the […] PRESTO-Tango GPCRome screen
[23] = molecular target: Metabotropic glutamate receptor 4 (Homo sapiens) (UniProt Q14833); assay: RLU of GRM4 at 1.0 µM in the Aequorin PRESTO-Tango GPCRome screen
[24] = molecular target: Alpha-2B adrenergic receptor (Homo sapiens) (UniProt P18089); assay: RLU of ADRA2B at 1.0 µM in the […] PRESTO-Tango GPCRome screen
[25] = molecular target: Growth hormone-releasing hormone receptor (Homo sapiens) (UniProt Q02643); assay: RLU of GHRHR at 1.0 µM in the […] PRESTO-Tango GPCRome screen
[26] = molecular target: Mas-related G-protein coupled receptor member G (Homo sapiens) (UniProt Q86SM5); assay: RLU of MRGPRG at 1.0 µM in the […] PRESTO-Tango GPCRome screen
Chain of Mas-related G-protein coupled receptor member G (Homo sapiens) (Q86SM5 whole entry): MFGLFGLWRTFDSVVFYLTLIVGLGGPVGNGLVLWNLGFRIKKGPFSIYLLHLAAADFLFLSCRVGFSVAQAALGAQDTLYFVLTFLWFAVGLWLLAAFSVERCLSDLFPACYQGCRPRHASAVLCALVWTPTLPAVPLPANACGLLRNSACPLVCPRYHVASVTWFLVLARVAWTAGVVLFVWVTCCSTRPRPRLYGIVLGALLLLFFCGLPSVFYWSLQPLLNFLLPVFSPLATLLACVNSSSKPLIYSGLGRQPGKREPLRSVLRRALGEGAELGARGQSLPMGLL

[27] = molecular target: Neuropeptide Y receptor type 2 (Homo sapiens) (UniProt P49146); assay: RLU of NPY2R at 1.0 µM in the […] PRESTO-Tango GPCRome screen
[28] = molecular target: B2 bradykinin receptor (Homo sapiens) (UniProt P30411); assay: RLU of BDKRB2 at 1.0 µM in the […] PRESTO-Tango GPCRome screen
Chain of B2 bradykinin receptor (Homo sapiens) (P30411 whole entry): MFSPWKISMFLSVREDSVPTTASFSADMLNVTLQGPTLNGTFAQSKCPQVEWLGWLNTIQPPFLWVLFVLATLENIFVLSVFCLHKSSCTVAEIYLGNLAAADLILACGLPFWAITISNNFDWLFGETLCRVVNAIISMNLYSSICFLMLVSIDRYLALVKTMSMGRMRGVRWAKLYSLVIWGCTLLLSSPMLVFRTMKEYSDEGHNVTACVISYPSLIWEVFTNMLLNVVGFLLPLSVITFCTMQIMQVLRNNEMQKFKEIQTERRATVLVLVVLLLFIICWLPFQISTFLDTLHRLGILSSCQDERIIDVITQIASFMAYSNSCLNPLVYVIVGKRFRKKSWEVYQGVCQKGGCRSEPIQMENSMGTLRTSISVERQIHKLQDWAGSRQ

[29] = molecular target: Probable G-protein coupled receptor 141 (Homo sapiens) (UniProt Q7Z602); assay: RLU of GPR141 at 1.0 µM in the […] PRESTO-Tango GPCRome screen
[30] = molecular target: Probable G-protein coupled receptor 75 (Homo sapiens) (UniProt O95800); assay: RLU of GPR75 at 1.0 µM in the […] PRESTO-Tango GPCRome screen
Chain of Probable G-protein coupled receptor 75 (Homo sapiens) (O95800 whole entry): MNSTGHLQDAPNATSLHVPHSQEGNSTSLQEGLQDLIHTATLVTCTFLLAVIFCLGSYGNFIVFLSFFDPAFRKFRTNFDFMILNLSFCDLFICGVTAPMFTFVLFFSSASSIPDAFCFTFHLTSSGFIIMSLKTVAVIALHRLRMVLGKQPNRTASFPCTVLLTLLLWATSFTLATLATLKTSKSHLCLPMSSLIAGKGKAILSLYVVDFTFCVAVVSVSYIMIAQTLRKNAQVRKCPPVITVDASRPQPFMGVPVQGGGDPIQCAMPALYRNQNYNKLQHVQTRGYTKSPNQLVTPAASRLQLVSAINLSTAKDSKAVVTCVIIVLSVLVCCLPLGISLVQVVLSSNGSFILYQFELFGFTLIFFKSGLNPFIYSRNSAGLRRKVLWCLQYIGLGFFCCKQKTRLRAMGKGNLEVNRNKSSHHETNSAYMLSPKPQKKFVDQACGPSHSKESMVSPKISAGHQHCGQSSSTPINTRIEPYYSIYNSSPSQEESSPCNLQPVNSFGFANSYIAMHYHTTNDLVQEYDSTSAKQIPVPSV

[31] = molecular target: Probable G-protein coupled receptor 174 (Homo sapiens) (UniProt Q9BXC1); assay: RLU of GPR174 at 1.0 µM in the […] PRESTO-Tango GPCRome screen
Chain of Probable G-protein coupled receptor 174 (Homo sapiens) (Q9BXC1 whole entry): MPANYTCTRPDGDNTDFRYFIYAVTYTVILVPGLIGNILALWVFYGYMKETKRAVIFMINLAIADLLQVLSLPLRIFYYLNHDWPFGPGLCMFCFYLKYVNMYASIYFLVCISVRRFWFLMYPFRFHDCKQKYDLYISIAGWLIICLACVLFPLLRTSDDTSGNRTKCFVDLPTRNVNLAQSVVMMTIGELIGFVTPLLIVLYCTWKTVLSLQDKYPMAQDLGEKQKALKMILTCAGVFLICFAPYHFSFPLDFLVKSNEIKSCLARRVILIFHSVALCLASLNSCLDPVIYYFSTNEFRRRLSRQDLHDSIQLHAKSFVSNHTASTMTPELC

[32] = molecular target: Melanocyte-stimulating hormone receptor (Homo sapiens) (UniProt Q01726); assay: RLU of MC1R at 1.0 µM in the […] PRESTO-Tango GPCRome screen
[33] = molecular target: Beta-3 adrenergic receptor (Homo sapiens) (UniProt P13945); assay: RLU of ADRB3 at 1.0 µM in the […] PRESTO-Tango GPCRome screen
[34] = molecular target: Cholecystokinin receptor type A (Homo sapiens) (UniProt P32238); assay: RLU of CCKAR at 1.0 µM in the […] PRESTO-Tango GPCRome screen
[35] = molecular target: G-protein coupled receptor 135 (Homo sapiens) (UniProt Q8IZ08); assay: RLU of GPR135 at 1.0 µM in the […] PRESTO-Tango GPCRome screen
Chain of G-protein coupled receptor 135 (Homo sapiens) (Q8IZ08 whole entry): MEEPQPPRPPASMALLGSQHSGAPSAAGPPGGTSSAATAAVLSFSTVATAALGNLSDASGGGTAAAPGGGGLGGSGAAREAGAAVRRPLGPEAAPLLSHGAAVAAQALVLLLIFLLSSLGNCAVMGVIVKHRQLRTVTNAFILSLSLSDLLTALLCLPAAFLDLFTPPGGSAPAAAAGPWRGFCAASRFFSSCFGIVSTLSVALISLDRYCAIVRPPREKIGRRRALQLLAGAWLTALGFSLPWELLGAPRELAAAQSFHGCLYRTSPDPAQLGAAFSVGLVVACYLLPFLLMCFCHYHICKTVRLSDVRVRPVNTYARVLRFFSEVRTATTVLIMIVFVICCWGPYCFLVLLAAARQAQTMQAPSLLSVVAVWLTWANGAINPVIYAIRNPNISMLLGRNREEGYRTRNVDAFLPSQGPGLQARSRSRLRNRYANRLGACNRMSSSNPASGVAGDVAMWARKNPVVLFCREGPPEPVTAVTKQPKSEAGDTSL

**Q.** What does the source list for `CCCCC(=O)N1CC2(C1)CN(c1ccccc1-c1nnn[nH]1)C2`?
**A.** RLU [1]: -7190; RLU [2]: 1540; RLU [3]: -7340; RLU [4]: 463; RLU [5]: 2710; RLU [6]: -793; RLU [7]: -3250; RLU [8]: -4180; RLU [9]: 387; RLU [10]: -1790; RLU [11]: -4860; RLU [12]: 2720; RLU [13]: 4140; RLU [14]: -483; RLU [15]: -1210; RLU [16]: -311; RLU [17]: -3640; RLU [18]: -570; RLU [19]: 1350; RLU [20]: 1260; RLU [21]: 5080; RLU [22]: 342; RLU [23]: -82.8; RLU [24]: 17900; RLU [25]: -1060; RLU [26]: -560; RLU [27]: 559; RLU [28]: 892; RLU [29]: 2790; RLU [30]: 868; RLU [31]: -102; RLU [32]: -1890; RLU [33]: 12400; RLU [34]: 2840; RLU [35]: 2860

Reference: ChEMBL document CHEMBL5723582, “Data for DCP probe T-10430” (2024)
